Measurements from ChEMBL document CHEMBL1944621, “Design, synthesis, and biological evaluation of novel (1-thioxo-1,2,3,4-tetrahydro-β-carbolin-9-yl)acetic acids as selective inhibitors for AKR1B1” (Bioorg Med Chem, 2012).
pIC50: −log10 of the molar value.

How the values were obtained:
[1] = biological target: T1, Aldo-keto reductase family 1 member A1 (Homo sapiens, UniProt P14550); experiment: Inhibition of human recombinant AKR1A1 expressed in Escherichia coli BL21 cells using D-glucuronate as substrate by spectrophotometry
T1 sequence (P14550 whole entry): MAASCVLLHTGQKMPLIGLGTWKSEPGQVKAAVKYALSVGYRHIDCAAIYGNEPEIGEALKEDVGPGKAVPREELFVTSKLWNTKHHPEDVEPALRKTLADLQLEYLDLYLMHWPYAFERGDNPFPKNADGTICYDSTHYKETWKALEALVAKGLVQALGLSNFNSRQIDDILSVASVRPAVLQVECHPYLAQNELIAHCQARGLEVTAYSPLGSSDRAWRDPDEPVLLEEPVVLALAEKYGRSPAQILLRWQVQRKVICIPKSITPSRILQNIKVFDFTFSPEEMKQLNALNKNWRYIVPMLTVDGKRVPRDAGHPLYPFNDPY

[2] = biological target: T2, Aldo-keto reductase family 1 member B1 (Homo sapiens, UniProt P15121); experiment: Inhibition of human recombinant AKR1B1 expressed in Escherichia coli BL21 cells using pyridine-3-aldehyde as substrate by spectrophotometry
[3] = biological target: Aldo-keto reductase family 1 member B10 (Homo sapiens, UniProt O60218); experiment: Inhibition of recombinant N-His6-tagged AKR1B10 expressed in Escherichia coli BL21 cells using pyridine-3-aldehyde as substrate by spectrophotometry
[4] = biological target: T2, Aldo-keto reductase family 1 member B1
Description: Noncompetitive inhibition of human recombinant AKR1B1 using pyridine-3-aldehyde as substrate by Lineweaver-Burk plot analysis

Chain of Aldo-keto reductase family 1 member B10 (O60218 whole entry): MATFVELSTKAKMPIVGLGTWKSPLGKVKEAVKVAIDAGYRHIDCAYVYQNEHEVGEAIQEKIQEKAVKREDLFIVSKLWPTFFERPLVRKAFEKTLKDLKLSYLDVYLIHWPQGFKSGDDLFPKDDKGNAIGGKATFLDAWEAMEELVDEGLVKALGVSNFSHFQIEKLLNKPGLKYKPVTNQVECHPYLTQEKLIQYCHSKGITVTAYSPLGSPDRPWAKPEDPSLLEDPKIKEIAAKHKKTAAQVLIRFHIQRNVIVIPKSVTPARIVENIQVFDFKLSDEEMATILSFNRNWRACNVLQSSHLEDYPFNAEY

SMILES: O=C(O)Cn1c2c(c3c(F)cc(F)cc31)CCN(Cc1ccccc1)C2=S
- pIC50 [1]: 5.33
- pIC50 [2]: 5.89
- pIC50 [3]: 6.32

SMILES: O=C(O)Cn1c2c(c3cc(F)ccc31)CCN(Cc1ccccc1)C2=S
- pIC50 [1]: 4.72
- pIC50 [2]: 6.64
- pIC50 [3]: 5.48

SMILES: O=C(O)Cn1c2c(c3ccccc31)CCN(Cc1ccc(C(F)(F)F)cc1)C2=S
- pIC50 [2]: 4.85
- pIC50 [3]: 5.42

SMILES: CC(C)c1ccc2c(c1)c1c(n2CC(=O)O)C(=S)N(Cc2ccccc2)CC1
- pIC50 [1]: 4.80
- pIC50 [2]: 6.70
- pIC50 [3]: 5.47

SMILES: O=C(O)Cn1c2c(c3c(F)cc(F)cc31)CCN(CCc1ccccc1)C2=S
- pIC50 [2]: 5.74
- pIC50 [3]: 6.40

SMILES: O=C(O)Cn1c2c(c3cc(F)ccc31)CCN(Cc1ccc(C(F)(F)F)cc1)C2=S
- pIC50 [2]: 5.00
- pIC50 [3]: 5.80

SMILES: COc1ccc2c(c1)c1c(n2CC(=O)O)C(=S)N(Cc2ccccc2)CC1
- pIC50 [1]: 4.92
- pIC50 [2]: 6.82
- pIC50 [3]: 5.54
- Kii [4]: 180 nM
- Kis [4]: 79 nM

SMILES: O=C(O)Cn1c2c(c3cc(Cl)ccc31)CCN(Cc1ccccc1)C2=S
- pIC50 [1]: 4.82
- pIC50 [2]: 6.46
- pIC50 [3]: 5.85

SMILES: O=C(O)Cn1c2c(c3cc(I)ccc31)CCN(Cc1ccccc1)C2=S
- pIC50 [1]: 4.96
- pIC50 [2]: 6.72
- pIC50 [3]: 5.85

SMILES: O=C(O)Cn1c2c(c3ccccc31)CCN(Cc1ccc(Br)cc1)C2=S
- pIC50 [1]: 4.85
- pIC50 [2]: 5.23
- pIC50 [3]: 6.07

SMILES: O=C(O)Cn1c2c(c3cc(Br)ccc31)CCN(Cc1ccccc1)C2=S
- pIC50 [1]: 4.96
- pIC50 [2]: 6.49
- pIC50 [3]: 5.85

SMILES: O=C(O)Cn1c2c(c3cc(F)ccc31)CCN(Cc1ccc(Br)cc1F)C2=S
- pIC50 [2]: 5.77
- pIC50 [3]: 6.55

SMILES: O=C(O)Cn1c2c(c3c(Cl)cc(Cl)cc31)CCN(Cc1ccccc1)C2=S
- pIC50 [1]: 5.00
- pIC50 [2]: 6.72
- pIC50 [3]: 5.21

SMILES: O=C(O)Cn1c2c(c3ccccc31)CCN(c1ccccc1)C2=S
- pIC50 [2]: 4.51
- pIC50 [3]: 4.68

SMILES: O=C(O)Cn1c2c(c3ccccc31)CCN(Cc1ccccc1)C2=S
- pIC50 [1]: 5.02
- pIC50 [2]: 6.66
- pIC50 [3]: 5.29

SMILES: O=C(O)Cn1c2c(c3ccccc31)CCN(Cc1ccc(Br)cc1F)C2=S
- pIC50 [2]: 5.38
- pIC50 [3]: 6.17

SMILES: O=C(O)Cn1c2c(c3cc(C(=O)O)ccc31)CCN(Cc1ccccc1)C2=S
- pIC50 [1]: 4.28
- pIC50 [2]: 6.77
- pIC50 [3]: 4.40
- Kii [4]: 220 nM
- Kis [4]: 55 nM

SMILES: O=C(O)Cn1c2c(c3cc(O)ccc31)CCN(Cc1ccccc1)C2=S
- pIC50 [2]: 6.70
- pIC50 [3]: 5.72

SMILES: O=C(O)Cn1c2c(c3ccc(Cl)cc31)CCN(Cc1ccccc1)C2=S
- pIC50 [1]: 4.68
- pIC50 [2]: 6.62
- pIC50 [3]: 5.85
